Molecules are shown by their SMILES.

T1 sequence (Q96P20 whole entry): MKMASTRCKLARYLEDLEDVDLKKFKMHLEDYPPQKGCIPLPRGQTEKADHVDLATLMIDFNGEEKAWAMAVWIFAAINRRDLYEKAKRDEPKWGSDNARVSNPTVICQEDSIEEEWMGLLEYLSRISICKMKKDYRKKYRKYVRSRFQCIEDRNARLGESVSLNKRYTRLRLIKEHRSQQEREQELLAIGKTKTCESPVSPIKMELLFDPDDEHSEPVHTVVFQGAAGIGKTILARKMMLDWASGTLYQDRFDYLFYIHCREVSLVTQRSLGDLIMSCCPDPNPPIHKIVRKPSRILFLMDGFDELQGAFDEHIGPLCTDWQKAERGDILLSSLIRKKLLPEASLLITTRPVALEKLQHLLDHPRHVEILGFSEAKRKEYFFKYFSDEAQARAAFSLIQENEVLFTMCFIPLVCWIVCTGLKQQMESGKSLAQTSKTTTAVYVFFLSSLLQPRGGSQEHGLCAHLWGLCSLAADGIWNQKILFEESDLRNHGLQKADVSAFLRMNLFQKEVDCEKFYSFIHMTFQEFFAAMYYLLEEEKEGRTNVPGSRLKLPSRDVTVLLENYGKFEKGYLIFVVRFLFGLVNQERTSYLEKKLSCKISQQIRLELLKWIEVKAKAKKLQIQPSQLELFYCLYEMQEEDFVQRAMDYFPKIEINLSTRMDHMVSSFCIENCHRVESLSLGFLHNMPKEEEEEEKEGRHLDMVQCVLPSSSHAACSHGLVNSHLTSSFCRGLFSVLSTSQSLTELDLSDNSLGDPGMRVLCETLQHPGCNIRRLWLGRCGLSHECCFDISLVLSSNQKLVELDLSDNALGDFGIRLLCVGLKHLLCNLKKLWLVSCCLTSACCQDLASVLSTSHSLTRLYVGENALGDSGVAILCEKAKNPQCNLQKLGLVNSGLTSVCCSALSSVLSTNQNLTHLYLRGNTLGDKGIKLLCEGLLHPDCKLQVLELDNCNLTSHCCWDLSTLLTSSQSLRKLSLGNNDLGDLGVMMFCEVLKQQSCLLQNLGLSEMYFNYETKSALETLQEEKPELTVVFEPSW

This experiment concerns the target T1, NLRP3 inflammasomes (Homo sapiens, UniProt Q96P20).
T1 construct: endogenous in cells; host or cells: THP-1 human monocytic cells, PMA-differentiated, LPS-primed, nigericin-stimulated
Put plainly: THP-1 pyroptosis test (cell pyroptosis test). The experiment is classed as cell-based. As to conditions: THP-1 cells differentiated with PMA, LPS stimulation, 10 μM nigericin, drug 0.001-10 μM, MTT absorbance 562 nm. The method, then:
In vitro activity screening was performed on small molecule compounds targeting inhibition on NLRP3 inflammasomes using THP-1 human monocytic cells (THP-1). THP-1 can be induced to differentiate into macrophages by phorbol ester (PMA), and the macrophages M1 can be induced to polarize by lipopolysaccharide (LPS) to release cytokines such as TNF-α, and IL-6, so as to establish a typical inflammatory model.
THP-1 cells in a logarithmic growth phase were collected to prepare a 1×10^6 cells/mL cell suspension, PMA was added to achieve a final concentration of 300 ng/mL in the cell suspension, then 1×10^5 cells were inoculated to each well of a 96-well plate, and the cells were cultured in a 37° C., 5% CO2 cell incubator for 24 hours and induced to differentiate into macrophages.
The next day, LPS was added to stimulate and induce the cells to produce an inflammatory model. […] In the 200 μL system of the 96-well plate, the final concentration of each drug was 0.001-10 μM, and the final concentration of the nigericin was 10 μM.
Cell apoptosis protection rate=[(X−C0)/(C−C0)]×100%
wherein, C, C0 and X represent average absorbance values of the normal cell group, the blank control group, and the drug treatment group, respectively. Finally, cell survival curves were fitted by Graphpad Prism 5.0 software and EC50 values of the compounds to be tested in inhibiting pyroptosis caused by NLRP3 inflammasomes were calculated.
The term EC50 denotes the concentration that produces a half-maximal response. With `Cn1cnc2c(N[C@H]3CCCc4ncccc43)nnc(-c3ccc(C(F)(F)F)cc3O)c21` [Compound 79], the EC50 is > 1000 nM.

Take `Cc1ccc2c(-c3ccc(C(F)(F)F)cc3O)nnc(N[C@@H]3CCCN(C)C3)c2n1` [Compound 52, (R)-2-(2-methyl-8-((1-methylpiperidin-3-yl)amino)pyridino[2,3-d]pyridazin-5-yl)-5-(trifluoromethyl)phenol]: the EC50 was < 20 nM.

Turning to `Cn1cnc2c(-c3ccc(C(F)(F)F)cc3O)nnc(NCC3CCOCC3)c21` [Compound 80], the EC50 was > 1000 nM.

As for `Cn1cnc2c(NCCN3CCOCC3)nnc(-c3ccc(F)cc3O)c21` [Compound 82], the half-maximal effective concentration (EC50) was > 1000 nM.

`CCc1cnc2c(-c3ccc(C(F)(F)F)cc3O)nnc(N[C@@H]3CCCN(C)C3)c2c1` [Compound 51, (R)-2-(3-ethyl-5-((1-methylpiperidin-3-yl)amino)pyridino[2,3-d]pyridazin-8-yl)-5-(trifluoromethyl)phenol]: the EC50 lay in the range of 20 to 100 nM.

In the case of `Cc1cnc2c(N[C@@H]3CCCN(C)C3)nnc(-c3ccc(F)cc3O)c2c1` [Compound 55, (R)-5-fluoro-2-(3-methyl-8-((1-methylpiperidin-3-yl)amino)pyridino[2,3-d]pyridazn-5-yl)phenol], the EC50 is < 20 nM.

Regarding `CN1CCC[C@@H](Nc2nnc(-c3ccc(C(F)(F)F)cc3O)c3ncn(C)c23)C1` [Compound 36, (R)-2-(1-methyl-7-((1-methylpiperidin-3-yl)amino)-1H-imidazo[4,5-d]pyridazin-4-yl)-5-(trifluoromethyl)phenol], the EC50 is 500 to 1000 nM.

In turn, `Oc1cc(C(F)(F)F)ccc1-c1nnc(N[C@H]2CCc3ncccc32)c2ccccc12` [Compound 30, (S)-2-(4-((6,7-dihydro-5H-cyclopenta[b]pyridin-5-yl)amino)phthalazin-1-yl)-5-(trifluoromethyl)phenol] gave a concentration for a half-maximal effect (EC50) of 20 to 100 nM.

In the case of `CN1CCC[C@@H](Nc2nnc(-c3ccc(C(F)(F)F)cc3O)c3c2nc(C(F)(F)F)n3C)C1` [Compound 58], the EC50 was < 20 nM.

Consider `Cc1ccc(-c2nnc(N[C@@H]3CCCN(C)C3)c3ncc(C)cc23)c(O)c1` [Compound 60, 5-methyl-2-(3-methyl-8-{[(3R)-1-methylpiperidin-3-yl]amino}pyridino[2,3-d]pyridazin-5-yl)phenol], for which the concentration for a half-maximal effect (EC50) is < 20 nM.

With `Cn1cnc2c(N[C@H]3CCc4ncccc43)nnc(-c3ccc(C(F)(F)F)cc3O)c21` [Compound 78], the 50% effective concentration (EC50) is > 1000 nM.

`CN1CC(Nc2nnc(-c3ccc(C(F)(F)F)cc3O)c3cnn(C)c23)CCC1=O` (stereo not drawn) [Compound 67] registered an EC50 of 100 to 500 nM.

On to `Cn1ncc2c(NCCN3CCOCC3)nnc(-c3ccc(C(F)(F)F)cc3O)c21` [Compound 73], for which the EC50 was in the range of 500 to 1000 nM.

Regarding `Cc1cnc2c(N[C@@H]3CCCN(C)C3)nnc(-c3ccccc3O)c2c1` [Compound 56, (R)-2-(3-methyl-8-((1-methylpiperidin-3-yl)amino)pyridino[2,3-d]pyridazin-5-yl)phenol], the half-maximal effective concentration (EC50) is < 20 nM.

For `CN1CCC[C@@H](Nc2nnc(-c3ccc(C(F)(F)F)cc3O)c3c2cnn3C)C1` [Compound 63, (R)-2-(1-methyl-4-((1-methylpiperidin-3-yl)amino)-1H-pyrazolo[3,4-d]pyridazin-7-yl)-5-(trifluoromethyl)phenol], the EC50 was < 20 nM.

`CC(=O)N1CCC[C@@H](Nc2nnc(-c3ccc(C(F)(F)F)cc3O)c3ccccc23)C1` [Compound 32, (R)-1-(3-((4-(2-hydroxy-4-(trifluoromethyl)phenyl)phthalazin-1-yl)amino)piperidin-1-yl)ethane-1-one] displayed an EC50 of 20 to 100 nM.

`CN1CCC(Nc2nnc(-c3ccc(F)cc3O)c3c2cnn3C)CC1` [Compound 70]: the concentration giving a half-maximal response (EC50) is > 1000 nM.

As for `Cc1ccc(-c2nnc(N[C@@H]3CCCN(C)C3)c3cnn(C)c23)c(O)c1` [Compound 65], the half-maximal effective concentration (EC50) was < 20 nM.

Take `Oc1cc(C(F)(F)F)ccc1-c1nnc(N[C@@H]2CCc3ncccc32)c2ccccc12` [Compound 29, (R)-2-(4-((6,7-dihydro-5H-cyclopenta[b]pyridin-5-yl)amino)phthalazin-1-yl)-5-(trifluoromethyl)phenol]: the EC50 is 20 to 100 nM.

Regarding `CN1CCC[C@@H](Nc2nnc(-c3ccc(OC(F)(F)F)cc3O)c3ccccc23)C1` [Compound 41, (R)-2-(4-((1-methylpiperidin-3-yl)amino)phthalazin-1-yl)-5-(trifluoromethoxy)phenol], the concentration giving a half-maximal response (EC50) is < 20 nM.

Take `CN1CC[C@@H](Oc2nnc(-c3ccc(C(F)(F)F)cc3O)c3c2ncn3C)C1` [Compound 85]: the concentration for a half-maximal effect (EC50) is > 1000 nM.

`COc1ccc2c(N[C@@H]3CCCN(C)C3)nnc(-c3ccc(C(F)(F)F)cc3O)c2c1` [Compound 5, (R)-2-(7-methoxy-4-((1-methylpiperidin-3-yl)amino)phthalazin-1-yl)-5-(trifluoromethyl)phenol]: the EC50 is < 20 nM.

As to `CN1CCC[C@@H](Oc2nnc(-c3ccc(C(F)(F)F)cc3O)c3c2ncn3C)C1` [Compound 86], the EC50 was > 1000 nM.

For the molecule `CN1CCC[C@@H](Nc2nnc(-c3ccc(C(F)(F)F)cc3O)c3cc(P(C)(C)=O)ccc23)C1` [Compound 45, (R)-(4-(2-hydroxy-4-(trifluoromethyl)phenyl)-1-((1-methylpiperidin-3-yl)amino)phthalazin-6-yl)dimethylphosphine oxide], the EC50 lay within 500 to 1000 nM.

Take `Cc1ccc(-c2nnc(N[C@@H]3CCCN(C)C3)c3ccccc23)c(O)c1` [Compound 40, (R)-5-methyl-2-(4-((1-methylpiperidin-3-yl)amino)phthalazin-1-yl)phenol]: the half-maximal effective concentration (EC50) is < 20 nM.

Regarding `CN1CCC[C@@H](Nc2nnc(-c3sccc3O)c3c2ncn3C)C1` [Compound 83], the half-maximal effective concentration (EC50) is > 1000 nM.

As to `CCN1CCC[C@@H]1CNc1nnc(-c2ccc(C(F)(F)F)cc2O)c2ccccc12` [Compound 27, (R)-2-(4-(((1-ethylpyrrolidin-2-yl)methyl)amino)phthalazin-1-yl)-5-(trifluoromethyl)phenol], the EC50 is 500 to 1000 nM.

Consider `Cn1cnc2c(NCCN3CCOCC3)nnc(-c3ccc(C(F)(F)F)cc3O)c21` [Compound 76], for which the half-maximal effective concentration (EC50) was > 1000 nM.

For `Cc1nc2c(N[C@@H]3CCCN(C)C3)nnc(-c3ccc(C(F)(F)F)cc3O)c2n1C` [Compound 57], the EC50 is < 20 nM.

As for `C[C@@H](Nc1nnc(-c2ccc(C(F)(F)F)cc2O)c2ccccc12)c1ccccn1` [Compound 12, (R)-2-(4-((1-(pyridin-2-yl)ethyl)amino)phthalazin-1-yl)-5-(trifluoromethyl)phenol], the EC50 is > 1000 nM.

`CCN1CCC[C@@H](Nc2nnc(-c3ccc(C(F)(F)F)cc3O)c3ccccc23)C1` [Compound 23, (R)-2-(4-((1-ethylpiperidin-3-yl)amino)phthalazin-1-yl)-5-(trifluoromethyl)phenol]: the EC50 was < 20 nM.

In the case of `Oc1cc(C(F)(F)F)ccc1-c1nnc(NCCN2CCOCC2)c2ccccc12` [Compound 21, 2-(4-((2-morpholinylethyl)amino)phthalazin-1-yl)-5-(trifluoromethyl)phenol], the EC50 was > 1000 nM.

Turning to `Oc1cc(C(F)(F)F)ccc1-c1nnc(N[C@@H]2CCCNC2)c2ccccc12` [Compound 22, (R)-2-(4-(piperidin-3-ylamino)phthalazin-1-yl)-5-(trifluoromethyl)phenol], the EC50 is < 20 nM.

As to `CN1CCC[C@@H](Nc2nnc(-c3ccc(C(F)(F)F)cc3O)c3c2ncn3C)C1` [Compound 37, (R)-2-(1-methyl-4-((1-methylpiperidin-3-yl)amino)-1H-imidazo[4,5-d]pyridazin-7-yl)-5-(trifluoromethyl)phenol], the EC50 was < 20 nM.

As for `CN1CCC[C@@H](Nc2nnc(-c3ccc(C(F)(F)F)cc3C(F)F)c3c2cnn3C)C1` [Compound 88], the EC50 lay within 20 to 100 nM.

As for `Cc1ccc(-c2nnc(NCCN3CCOCC3)c3c2cnn3C)c(O)c1` [Compound 74], the concentration for a half-maximal effect (EC50) was > 1000 nM.

Regarding `CN1CC(Nc2nnc(-c3ccc(C(F)(F)F)cc3O)c3ncn(C)c23)CCC1=O` (stereo not drawn) [Compound 81], the 50% effective concentration (EC50) was > 1000 nM.

`CC(C)(O)CNc1nnc(-c2ccc(C(F)(F)F)cc2O)c2ccccc12` [Compound 20, 2-(4-((2-hydroxy-2-methylpropyl)amino)phthalazin-1-yl)-5-(trifluoromethyl)phenol]: the 50% effective concentration (EC50) was > 1000 nM.

For the molecule `C[C@H](Nc1nnc(-c2ccc(C(F)(F)F)cc2O)c2ccccc12)c1ccccn1` [Compound 13, (S)-2-(4-((1-(pyridin-2-yl)ethyl)amino)phthalazin-1-yl)-5-(trifluoromethyl)phenol], the 50% effective concentration (EC50) is > 1000 nM.

With `C[C@@H](Nc1nnc(-c2ccc(C(F)(F)F)cc2O)c2ccccc12)c1ccc(F)cc1` [Compound 9, (R)-2-(4-((1-(4-fluorophenyl)ethyl)amino)phthalazin-1-yl)-5-(trifluoromethyl)phenol], the concentration for a half-maximal effect (EC50) is > 1000 nM.

On to `Cc1ccc2c(N[C@@H]3CCCN(C)C3)nnc(-c3ccc(C(F)(F)F)cc3O)c2c1` [Compound 3, (R)-2-(7-methyl-4-((1-methylpiperidin-3-yl)amino)phthalazin-1-yl)-5-(trifluoromethyl)phenol], for which the EC50 is < 20 nM.

Turning to `CCN1CC[C@@H](CNc2nnc(-c3ccc(C(F)(F)F)cc3O)c3c2cnn3C)C1` [Compound 71], the EC50 was > 1000 nM.

(Values after patent US20240391881A1, “PHARMACEUTICAL USE AND PREPARATION METHOD FOR SUBSTITUTED HETEROARYL PHTHALAZINE DERIVATIVE” (ORIGIANT PHARMACEUTICAL CO., LTD., priority 2021, published 2024).)
